Measured values published in patent US10406239B2, “Water-soluble docetaxel anticancer drug compound and preparation method and use thereof” (NANJING YOUYI MEDICAL TECHNOLOGY CO., LTD, priority 2015, dated 2019).
Marks after values point to notes of the source that are not given here.

Experiments:
[1] = background statement; cited from earlier work
[2] = test system: A549 human lung cancer xenografts; test: Growth inhibition on A549 human lung cancer xenografts in nude mice; format: in vivo, BALB/c nude mice; details: for Tumor inhibition rate: by tumor weight
Procedure: (§1) The dose volume was 0.4 ml per 20 g, that is, the dose was 96 mg/kg. Then, the solution was diluted to other desired concentrations with 0.9% sodium chloride solution.
(§2) Docetaxel injection, manufactured by Jiangsu Hengrui Pharmaceutical Co., Ltd., lot number: 15011215, specification: 0.5 ml: 20 mg. Formulation method: during use, 20 mg of docetaxel injection of the above specification was added to 1.5 ml of a solvent for the docetaxel injection to give a concentration of 10 mg/ml, and then fully diluted with saline to 1 mg/ml. The dose volume was 0.2 ml per 20 g, that is, the dose was 10 mg/kg.
(§3) BALB/c nude mice, provided by Changzhou Kavens Laboratory Animal Co., Ltd. (Experimental Animal Production License: SOCK (Su) 2011-0003), age: 35-40 days, weight: 18-24 g, female.
A549 human lung cancer xenografts in nude mice was established by inoculating human lung cancer A549 cell line subcutaneously to the axillary fossa of nude mice in an amount of 2*10^6 cells/animal.
(§4) Human lung cancer A549 cell line in logarithmic growth phase was prepared into a cell suspension of 1×10^8 cells/ml under aseptic conditions and subcutaneously inoculated to the right axillary fossa of nude mice in a volume of 0.1 ml. The size of the xenograft in the nude mice was measured with a vernier caliper. After the xenografts grew to 100-300 mm^3, the animals were randomly grouped. The anti-tumor effect of the test agents was dynamically observed by measuring the size of the xenografts. The size of the xenografts was measured once every 3 days. The dose volume was 0.4 ml/20 g. Twenty-one days later, the mice were sacrificed and the tumors were surgically excised and weighed. The tumor volume (TV) is calculated by a formula below: TV=½×a×b^2
The relative tumor volume (RTV) is calculated based on the measurements by a formula: RTV=Vt/V0, where V0 is the measured tumor volume upon being caged (i.e., d0) and Vt is the tumor volume at each measurement. The evaluation index of the anti-tumor activity is relative tumor growth rate T/C (%), which is calculated by a formula below: […]
in which TRTV is the RTV of the treatment group; and CRTV is the RTV of the negative control group.
The tumor inhibition rate is calculated by a formula below: […]
Tweight is the average tumor weight of the treatment group; and Cweight is the average tumor weight of the negative control group.

[3] = Effect on body weight of nude mice with A549 human lung cancer xenografts; format: in vivo, BALB/c nude mice
Procedure: as §1, §2, §3, §4

[4] = background statement; cited from earlier work; remark: listed apart in the source
[5] = Docetaxel 10 mg/kg, tail vein, once every 3 days, 7 doses, 21 d
[6] = Docetaxel 10 mg/kg, tail vein, once every 3 days, 3 d
[7] = Docetaxel 10 mg/kg, tail vein, once every 3 days, 6 d
[8] = Docetaxel 10 mg/kg, tail vein, once every 3 days, 9 d
[9] = Docetaxel 10 mg/kg, tail vein, once every 3 days, 12 d
[10] = Docetaxel 10 mg/kg, tail vein, once every 3 days, 15 d
[11] = Docetaxel 10 mg/kg, tail vein, once every 3 days, 18 d

CC(=O)O[C@@]12CO[C@@H]1C[C@H](O)[C@@]1(C)C(=O)[C@H](O)C3=C(C)[C@@H](OC(=O)[C@H](O)[C@@H](NC(=O)OC(C)(C)C)c4ccccc4)C[C@@](O)([C@@H](OC(=O)c4ccccc4)[C@H]21)C3(C)C [Docetaxel]
intracellular concentration higher than that of paclitaxel [1]: 3 times
Tumor volume ([2]; Docetaxel 10 mg/kg group, 0 d (baseline)): 100.58 ± 20.87 mm^3
Tumor inhibition rate ([2]; Docetaxel 10 mg/kg, once every 3 days, 7 doses): 72.16%
Tumor inhibition rate ([2]; Docetaxel 10 mg/kg, once every 3 days, 7 doses, listed as docetaxel): 72.16%
Tumor weight ([2]; Docetaxel 10 mg/kg, once every 3 days, tumors excised after 21 days): 0.33 ± 0.15 g
RTV (relative tumor volume) [2, 5]: 2.40 ± 0.99
T/C (relative tumor growth rate) [2, 5]: 21.15%
Tumor volume [2, 5]: 226.65 ± 56.45* mm^3
T/C (relative tumor growth rate) ([2]; Docetaxel 10 mg/kg, tail vein, once every 3 days, 7 doses, 21 d, listed as docetaxel): 21.15%
RTV (relative tumor volume) [2, 6]: 1.62 ± 0.37
T/C (relative tumor growth rate) [2, 6]: 56.09%
Tumor volume [2, 6]: 157.30 ± 26.48** mm^3
RTV (relative tumor volume) [2, 7]: 1.49 ± 0.39
T/C (relative tumor growth rate) [2, 7]: 41.39%
Tumor volume [2, 7]: 147.47 ± 41.99** mm^3
RTV (relative tumor volume) [2, 8]: 1.59 ± 0.47
T/C (relative tumor growth rate) [2, 8]: 34.23%
Tumor volume [2, 8]: 155.55 ± 44.12** mm^3
RTV (relative tumor volume) [2, 9]: 2.15 ± 0.81
T/C (relative tumor growth rate) [2, 9]: 33.77%
Tumor volume [2, 9]: 208.93 ± 68.26** mm^3
RTV (relative tumor volume) [2, 10]: 2.24 ± 0.43
T/C (relative tumor growth rate) [2, 10]: 26.80%
Tumor volume [2, 10]: 224.22 ± 57.63** mm^3
RTV (relative tumor volume) [2, 11]: 1.87 ± 0.28
T/C (relative tumor growth rate) [2, 11]: 19.30%
Tumor volume [2, 11]: 186.80 ± 42.03** mm^3
effect on the body weight of the experimental mice (in words) ([3]; 10 mg/kg docetaxel, P<0.01): Extremely significant effect
Initial body weight ([3]; Docetaxel 10 mg/kg group, before dosing): 22.50 ± 1.26 g
Final body weight ([3]; Docetaxel 10 mg/kg, once every 3 days, end of study (21 days)): 15.17 ± 0.90 g
oral bioavailability [4]: less than 8%
